# Data published in PMC4689406, “(R)-NODAGA-PSMA: A Versatile Precursor for Radiometal Labeling and Nuclear Imaging of PSMA-Positive Tumors” (PLoS ONE, 2015).
# Assays:
# [1] = Lipophilicity (LogD, pH 7.4), shake-flask method; type: physicochemical; conditions: octanol/PBS pH 7.4, shake-flask
# Description: The lipophilicity (LogD, pH 7.4) was estimated by the “shake-flask” method (S3 Appendix).
# The mixture was vortexed for 1 h to reach the equilibrium and then centrifuged (3000 rpm) for 10 min. From each phase, an aliquot (100 μL) was pipetted out and measured in a γ-counter. Each measurement was repeated five times. Care was taken to avoid cross-contamination between the phases. The partition coefficient was calculated as the average log ratio of the radioactivity in the organic fraction and the PBS fraction.
# LNCaP xenografts = experiment: Biodistribution in LNCaP xenografts; type: in vivo, Balb/C nude mice; conditions: for Adrenal (biodistribution) / Blood (biodistribution) / Heart (biodistribution) / Intestine (biodistribution) / Kidney (biodistribution) / LNCaP-tumor (tumor uptake, biodistribution) / Lung (biodistribution) / Muscle (biodistribution) / Pancreas (biodistribution) / Spleen (biodistribution) / Stomach (biodistribution) / Bone (biodistribution) / Liver (biodistribution) / Tumor/blood / Tumor/kidney / Tumor/muscle: 10 pmol i.v., LNCaP mice; for Tumor/blood / Tumor/kidney / Tumor/muscle: ratio
# Description: Female athymic Balb/C nude mice (age: 4–6 weeks, weight: 17–20 g) were purchased from Janvier, France. […] All animal experiments were conducted in strict accordance with the recommendations in the Guide for the Care and Use of Laboratory Animals of the National Institutes of Health. […]
# PSMA on LNCaP cells = biological target: T1, PSMA on LNCaP cells (Homo sapiens, UniProt Q04609); experiment: Saturation binding study on intact LNCaP cells; conditions: 120 min at 4°C
# T1 construct: host or cells: LNCaP cells
# T1 sequence (Q04609 whole entry): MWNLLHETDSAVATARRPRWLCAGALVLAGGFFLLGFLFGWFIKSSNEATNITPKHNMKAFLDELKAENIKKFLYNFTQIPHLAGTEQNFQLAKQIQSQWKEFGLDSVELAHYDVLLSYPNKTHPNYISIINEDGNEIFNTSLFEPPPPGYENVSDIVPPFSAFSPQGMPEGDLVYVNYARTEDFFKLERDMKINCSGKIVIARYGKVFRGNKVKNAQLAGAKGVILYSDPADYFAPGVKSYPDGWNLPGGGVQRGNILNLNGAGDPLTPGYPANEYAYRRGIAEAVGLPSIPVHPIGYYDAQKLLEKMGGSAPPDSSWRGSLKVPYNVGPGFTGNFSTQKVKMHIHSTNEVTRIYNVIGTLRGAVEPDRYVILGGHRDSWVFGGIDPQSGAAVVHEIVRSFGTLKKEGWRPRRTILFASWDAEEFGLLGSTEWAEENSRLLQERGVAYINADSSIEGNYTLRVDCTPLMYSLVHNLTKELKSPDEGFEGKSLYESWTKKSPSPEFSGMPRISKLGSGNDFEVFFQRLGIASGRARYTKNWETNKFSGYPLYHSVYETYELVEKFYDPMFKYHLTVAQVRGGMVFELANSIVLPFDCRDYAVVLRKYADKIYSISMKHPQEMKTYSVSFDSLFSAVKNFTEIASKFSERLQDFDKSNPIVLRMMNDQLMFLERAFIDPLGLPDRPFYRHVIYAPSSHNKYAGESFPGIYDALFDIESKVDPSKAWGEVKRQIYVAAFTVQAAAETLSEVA
# Description: The next day, the medium was removed, the cells washed and incubated for 1 h at 37°C with fresh binding buffer (RPMI Medium 1640-GlutaMAX containing 1% FBS, 100 U/mL penicillin and 100 μg/mL streptomycin, 50 mM Hepes, 50 μg/mL bacitracin, 0.5% BSA). Afterwards, the plates were placed on ice for 30 min followed by incubation with increasing concentrations of either ^68/natGa-CC34, ^64/natCu-CC34, ^111/natIn-CC34 and ^111/[…]-617 (1-100 nM) in phosphate-buffered saline binding buffer pH 7.4. After the addition of the radioligands, the cells were incubated for 120 min at 4°C. […] The cells were washed twice with ice-cold PBS, followed by solubilization with 1 N NaOH and the cell-associated radioactivity was measured using a gamma-counter. Specific binding was plotted against the total molar concentration of the added radiotracer. […] For all the cell studies the values are normalized for 1x10^6 cells per well and all data are from two independent experiments with triplicates in each experiment.
# [2] = 1 h p.i. blocked (co-injected 20 nmol PMPA)
compound,measurement,setting,value
"O=C([O-])CN(CCN(CC(=O)[O-])Cc1cc(CCC(=O)NCCCCCC(=O)NCCCC[C@H](NC(=O)N[C@@H](CCC(=O)O)C(=O)O)C(=O)O)ccc1[O-])Cc1cc(CCC(=O)O)ccc1[O-].[68Ga+3].[OH3+] [^68Ga-HBED-CC-PSMA, HBED-CC-Ahx-Lys-NH-CO-NH-Glu]",LogDoctanol/PBS,[1],-4.06 ± 0.10
same,Adrenal (biodistribution),LNCaP xenografts; [2],1.1±0.5 %IA/g
same,Blood (biodistribution),LNCaP xenografts; [2],0.4±0.04 %IA/g
same,Heart (biodistribution),LNCaP xenografts; [2],0.2±0.06 %IA/g
same,Intestine (biodistribution),LNCaP xenografts; [2],0.3±0.04 %IA/g
same,Kidney (biodistribution),LNCaP xenografts; [2],11±3 %IA/g
same,"LNCaP-tumor (tumor uptake, biodistribution)",LNCaP xenografts; [2],4.1±1.2 %IA/g
same,Lung (biodistribution),LNCaP xenografts; [2],0.7±0.2 %IA/g
same,Muscle (biodistribution),LNCaP xenografts; [2],0.2±0.1 %IA/g
same,Pancreas (biodistribution),LNCaP xenografts; [2],0.3±0.04 %IA/g
same,Spleen (biodistribution),LNCaP xenografts; [2],2.1±0.06 %IA/g
same,Stomach (biodistribution),LNCaP xenografts; [2],0.3±0.01 %IA/g
same,Adrenal (biodistribution),LNCaP xenografts; 1 h p.i.,23±4 %IA/g
same,Blood (biodistribution),LNCaP xenografts; 1 h p.i.,0.2±0.04 %IA/g
same,Bone (biodistribution),LNCaP xenografts; 1 h p.i.,0.5±0.05 %IA/g
same,Heart (biodistribution),LNCaP xenografts; 1 h p.i.,0.6±0.06 %IA/g
same,Intestine (biodistribution),LNCaP xenografts; 1 h p.i.,0.5±0.1 %IA/g
same,Kidney (biodistribution),LNCaP xenografts; 1 h p.i.,208±4 %IA/g
same,"LNCaP-tumor (tumor uptake, biodistribution)",LNCaP xenografts; 1 h p.i.,15.8±1.4 %IA/g
same,Liver (biodistribution),LNCaP xenografts; 1 h p.i.,0.4±0.01 %IA/g
same,Lung (biodistribution),LNCaP xenografts; 1 h p.i.,3.5±0.2 %IA/g
same,Muscle (biodistribution),LNCaP xenografts; 1 h p.i.,0.6±0.06 %IA/g
same,Pancreas (biodistribution),LNCaP xenografts; 1 h p.i.,1.4±0.3 %IA/g
same,Spleen (biodistribution),LNCaP xenografts; 1 h p.i.,31±6 %IA/g
same,Stomach (biodistribution),LNCaP xenografts; 1 h p.i.,0.7±0.1 %IA/g
same,Adrenal (biodistribution),LNCaP xenografts; 2 h p.i.,23±0.8 %IA/g
same,Bone (biodistribution),LNCaP xenografts; 2 h p.i.,0.4±0.2 %IA/g
same,Heart (biodistribution),LNCaP xenografts; 2 h p.i.,0.6±0.02 %IA/g
same,Intestine (biodistribution),LNCaP xenografts; 2 h p.i.,0.5±0.2 %IA/g
same,Kidney (biodistribution),LNCaP xenografts; 2 h p.i.,211±29 %IA/g
same,"LNCaP-tumor (tumor uptake, biodistribution)",LNCaP xenografts; 2 h p.i.,14.8±2.2 %IA/g
same,Liver (biodistribution),LNCaP xenografts; 2 h p.i.,0.4±0.05 %IA/g
same,Lung (biodistribution),LNCaP xenografts; 2 h p.i.,3.2±0.2 %IA/g
same,Muscle (biodistribution),LNCaP xenografts; 2 h p.i.,0.6±0.2 %IA/g
same,Pancreas (biodistribution),LNCaP xenografts; 2 h p.i.,2±0.5 %IA/g
same,Spleen (biodistribution),LNCaP xenografts; 2 h p.i.,29±2 %IA/g
same,Stomach (biodistribution),LNCaP xenografts; 2 h p.i.,1±0.6 %IA/g
same,reduction of the tumor uptake (blocking),"LNCaP xenografts; LNCaP tumor, 1 h p.i., co-injection of 20 nmol PMPA",about 75%
same,Tumor/blood,LNCaP xenografts; 1 h p.i.,68±4
same,Tumor/kidney,LNCaP xenografts; 1 h p.i.,0.08±0.01
same,Tumor/muscle,LNCaP xenografts; 1 h p.i.,29±6
same,Tumor/blood,LNCaP xenografts; 2 h p.i.,83±15
same,Tumor/kidney,LNCaP xenografts; 2 h p.i.,0.07±0.02
same,Tumor/muscle,LNCaP xenografts; 2 h p.i.,24±3
same,Bmax (maximum number of binding sites),PSMA on LNCaP cells,0.41 ± 0.02 nM
same,Kd,"PSMA on LNCaP cells; non-specific binding with 1 μM PMPA, read-out: Kd (dissociation constant)",2.9 ± 0.6 nM
